# Columns and labels:
# [1] = test system: expanded cells derived from human embryonic stem cell line H9; test: Real-time PCR of DE and visceral endoderm markers in expanded cells; format: cell-based
# Protocol: Real-time PCR amplification and quantitative analysis: Unless otherwise stated, all reagents were purchased from Applied Biosystems. Real-time PCR reactions were performed using the ABI PRISM® 7900 Sequence Detection System. TAQMAN® UNIVERSAL PCR MASTER MIX® (ABI, CA) was used with 20 ng of reverse transcribed RNA in a total reaction volume of 20 μl. Each cDNA sample was run in duplicate to correct for pipetting errors. Primers and FAM-labeled TAQMAN® probes were used at concentrations of 200 nM. The level of expression for each target gene was normalized using a human glyceraldehyde-3-phosphate dehydrogenase (GAPDH) endogenous control previously developed by Applied Biosystems. SOX-17 primers were designed using the PRIMERS program (ABI, CA) and were the following sequences: SOX-17: TGGCGCAGCAGATACCA, AGCGCCTTCCACGACTTG, and […]. After an initial incubation at 50° C. for 2 min followed by 95° C. for 10 min, samples were cycled 40 times in two stages—a denaturation step at 95° C. for 15 sec followed by an annealing/extension step at 60° C. for 1 min. Data analysis was carried out using GENEAMP®7000 Sequence Detection System software. For each primer/probe set, a Ct value was determined as the cycle number at which the fluorescence intensity reached a specific value in the middle of the exponential region of amplification. Relative gene expression levels were calculated using the comparative Ct method. Briefly, for each cDNA sample, the endogenous control Ct value was subtracted from the gene of interest Ct to give the delta Ct value (ΔCt). The normalized amount of target was calculated as 2-ΔCt, assuming amplification to be 100% efficiency. Final data were expressed relative to a calibrator sample.
# Cultures derived from the parental human embryonic stem cell line H9 according to the methods described in Example 6 were passaged every 4-7 days. FIG. 5 depicts real-time PCR results for the expanded cells cultured in 2% FBS+DMEM-F12+100 ng/ml of activin-A+20 of WNT3A for three passages. […] There is a clear decrease in DE markers, such as SOX-17 and HNF-3 beta following each passage. […]
# [2] = test system: human embryonic stem cell line H9; test: Attachment of single human embryonic stem cells on uncoated TCPS with or without ROCK inhibitor; format: cell-based; conditions: 10 μm ROCK inhibitor, 24 hrs after seeding on TCPS, hypoxic (approximately 3% O2), compared to cultures without ROCK inhibitor
# Protocol: Cells from the human embryonic stem cell line H9 at passage 35 lines were cultured under hypoxic conditions (approximately 3% O2) for at least three passages. The cells were cultured in MEF-CM supplemented with 8 ng/ml of bFGF and plated on MATRIGEL coated plates according to Example 1. At approximately 60% confluency, the cultures were exposed to TrypLE™ Express solution (Invitrogen, CA) for 5 mins. Released cells were resuspended in DM-F12+2% FBS medium, recovered by centrifugation, and counted using a hemocytometer. The released cells were seeded at 1000-10,000 cells/cm^2 on tissue culture polystyrene (TCPS) flasks and cultured in DM-F12+2% FBS+100 ng/ml activin-A+20 ng/ml WNT-3A+50 ng/ml of IGF-I+0.1 mM mercaptoethanol (Invitrogen, CA), non-essential amino acids (1×, NEAA from Invitrogen, CA)+/−10 μm ROCK inhibitor (Y-27632, Calbiochem, CA) under hypoxic conditions (approximately 3% O2) at 37° C. in a standard tissue culture incubator. The TCPS flaks were not coated with MATRIGEL or other extracellular matrix proteins. The media was changed daily. The first passage cells are referred to as P1. […] EXPRES cells derived using the ROCK inhibitor, Y27632 were designated as EXPRES 15.
# EXPRES 01 cells = test: CXCR4 expression by FACS after DE differentiation; format: cell-based, human; conditions: passage 19, day 4; 100 nM GSK-3B inhibitor IX with 0.5% FBS, 20 ng/ml WNT-3a, 100 ng/ml activin-A (about 17% in earlier protocol without inhibitor)
# Protocol: (§1) Adhered human embryonic stem cells were removed from culture plates by a five-minute incubation with TrypLE™ Express solution (Invitrogen, CA). Released cells were resuspended in human embryonic stem cell culture medium and recovered by centrifugation, followed by washing and resuspending the cells in a staining buffer consisting of 2% BSA, 0.05% sodium azide in PBS (Sigma, Mo.). As appropriate, the cells were Fc-receptor blocked for 15 minutes using a 0.1% γ-globulin (Sigma) solution. […] Controls included appropriate isotype matched antibodies, unstained cells, and cells stained only with secondary conjugated antibody. All incubations with antibodies were performed for 30 mins at 4° C., after which the cells were washed with the staining buffer. Samples that were stained with unconjugated primary antibodies were incubated for an additional 30 mins at 4° C. with secondary conjugated PE or -APC labeled antibodies. See Table IB for a list of secondary antibodies used. Washed cells were pelleted and resuspended in the staining buffer, and the cell surface molecules were identified using a FACS Array (BD Biosciences) instrument, collecting at least 10,000 events. […]
# EXPRES 02 cells = test: CXCR4 expression by FACS after DE differentiation; format: cell-based, human; conditions: passage 14, day 4; 100 nM GSK-3B inhibitor IX with 0.5% FBS, 20 ng/ml WNT-3a, 100 ng/ml activin-A (about 40% in earlier protocol without inhibitor)
# Protocol: as §1
# EXPRES cells = test: Population doubling time of EXPRES cells in growth media; format: cell-based, human; conditions: H9-derived EXPRES cells on TCPS, hypoxic; IGF-I at 50 ng/ml added to growth media (DMEM-F12+2% FBS+100 ng/ml activin-A+20 ng/ml WNT-3A)
# Protocol: Cells from the human embryonic stem cell lines H1 and H9 various passages (Passage 30-54) were cultured under hypoxic conditions (approximately 3% 02) for at least three passages. The cells were cultured in MEF-CM supplemented with 8 ng/ml of bFGF and plated on MATRIGEL coated plates according to Example 1. The cells were exposed to the DE protocol outlined in Example 5. At days 3-6, the cultures were exposed to TrypLE™ Express solution (Invitrogen, CA) for 5 mins. Released cells were resuspended in DMEM-F12+2% FBS medium, recovered by centrifugation, and counted using a hemocytometer. The released cells were seeded at 1000-10,000 cells/cm^2 on tissue culture polystyrene (TCPS) treated flasks and cultured in DMEM-F12+2% FBS+100 ng/ml activin-A+20 ng/ml WNT-3A under hypoxic conditions (approximately 3% O2) at 37° C. in standard tissue culture incubator. The TCPS flaks were not coated with MATRIGEL or other extracellular matrix proteins. The media was changed daily. In some cultures, the media was further supplemented with 10-50 ng/ml of IGF-I (insulin growth factor-I from R&D Systems, MN) or 1×ITS (Insulin, transferrin, and selenium from Invitrogen, Ca). In some of the culture conditions the basal media (DM-F12+2% FBS) was further supplemented with 0.1 mM mercaptoethanol (Invitrogen, CA) and non-essential amino acids (1×, NEAA from Invitrogen, CA). […]
# EXPRES 03 cells = test: Proliferation and cell cycle analysis (BRDU incorporation, 7AAD); format: cell-based, human
# Protocol: Methods: Cells were seeded at 5,000-10,000 cells/cm^2 in Cell Bind tissue culture flasks (Corning) and cultured for 2-4 days. EXPRES 03 cells were cultured either in growth medium containing 2% FBS in DMEM/F12 and Activin-A (100 ng/ml), wnt3a (10-20 ng/ml) and IGF (50 ng/ml). For comparative proliferation analysis, IGF was sometimes omitted from the growth factor cocktail. Cell proliferation was analyzed using the APC BRDU Flow kit according to the Manufacturer's recommendations (BD Biosciences, San Diego, Calif.). Briefly, cells were pulsed with BRDU for 1-2 hrs at the end of culture period, released using Tryple E Express and counted. Cells were fixed in BD Cytofix/Cytosperm Buffer, incubated for 30 min, followed by incubation with BD Cytoperm buffer for 10 minutes on ice. Cells were then treated with DNAse for 1 hr at 37° C. to expose incorporated BRDU, followed by staining with APC conjugated anti-BRDU antibody. For cell cycle analysis, cells were stained with 7AAD, and analyzed on FACS Array.
# [3] = test system: Mouse Embryo Fibroblast (MEF); test: Cell cycle analysis of mitomycin treated feeder cells; format: cell-based
# Protocol: MEF cells, derived from E13 to 13.5 mouse embryos, were purchased from Charles River. MEF cells were expanded in DMEM medium supplemented with 10% FBS (Hyclone), 2 mM glutamine, and 100 mM MEM nonessential amino acids. Sub-confluent MEF cell cultures were treated with 10 μg/ml mitomycin C (Sigma, St. Louis, Mo.) for 3 h to arrest cell division, then trypsinized and plated at 2×10^4/cm2 on 0.1% bovine gelatin-coated dishes. MEF cells from passage two through four were used as feeder layers. […] For cell cycle analysis, cells were stained with 7AAD, and analyzed on FACS Array.
# [4] = addition of 50 ng/ml IGF-I and withdrawal of Activin-A and WNT-3A
molecule,measurement,setting,value
WNT3A,expression of DE markers,[1]; WNT3A added to growth media containing activin-A,significant boost
C[C@@H](N)[C@H]1CC[C@H](C(=O)Nc2ccncc2)CC1 [Y-27632],number of attached cells,[2],significantly larger number of attached cells
O=C1Nc2cc(Br)ccc2/C1=C1/Nc2ccccc2/C1=N\O [GSK-3B inhibitor IX],CXCR4 positive cells,EXPRES 01 cells,approximately 57%
same,CXCR4 positive cells,EXPRES 02 cells,approximately 86%
IGF-I: insulin growth factor-I from R&D Systems; recombinant human IGF-1,population doubling time,EXPRES cells,approximately 55 hrs
same,expression of DE markers along with OCT-4,[1]; [4],precipitous drop
same,"expression of visceral endoderm markers, such as SOX-7 and AFP",[1]; [4],increase
same,"frequency of cells in S-phase, presence versus absence of IGF",EXPRES 03 cells; BRDU exposure for 1 hour or more,only marginal differences
same,number of cells grown in presence of IGF relative to absence of IGF,"EXPRES 03 cells; IGF 50 ng/ml, after 3-4 days",2-3 times
"CO[C@@]12[C@H](COC(N)=O)C3=C(C(=O)C(C)=C(N)C3=O)N1C[C@@H]1N[C@@H]12 [mitomycin, mitomycin C]",cells in G2/M phase,[3],64%

# — patent US7939322B2, “Cells expressing pluripotency markers and expressing markers characteristic of the definitive endoderm” (Centocor Ortho Biotech Inc., priority 2008, dated 2011)
